This is an account of results in paper PMC8949600, “In Vitro & In Vivo Studies on Identifying and Designing Temporin-1CEh from the Skin Secretion of Rana chensinensis as the Optimised Antibacterial Prototype Drug” (Pharmaceutics, 2022).

In brackets after ≈: the same amount, converted by molar mass. Where two headings read alike, the source gives them in different places. Bridge positions count the residues as written; N and C are the ends. Peptide text beside a SMILES is read from it. I, II: the chains in the order shown.

Series [1] relates to E. coli (ATCC 8739). The class given is cell-based. Here is the method:
(§1) A measure of 5 × 10^5 CFU/mL of bacterial suspension including 2-fold dilution peptides (ranging from 1 µM to 512 µM) was incubated in 96-well plates for 16–20 h at 37 °C. For the positive and negative control, 200 mg/L of final concentration of norfloxacin and 1% DMSO were applied, respectively. […] Subsequently, 10 µL of the solution in each clear well was dropped on a Mueller–Hinton agar (MHA) plate and incubated at 37 °C for 16–20 h. The lowest concentration without colony growth was considered as the MBCs.
(§2) Mueller–Hinton broth (MHB) at pH 6.0 and 8.0 as well as MHB containing 10% of Fetal Bovine Serum (FBS), 150 mM of NaCl, 1 mM of MgCl2 and 4 µM of FeCl3, respectively, were prepared. In particular, the pathogens were diluted by the preprepared mediums to a final concentration of 5 × 10^5 CFU/mL after growing to the logarithmic phase, and other operations followed the MIC assay.

A further series has as its system E. faecalis (NCTC 12697). The class given is cell-based. Here is the method:
as §1, §2

The test system of series [2] is K. pneumoniae (ATCC 43816). The class given is cell-based. Here is the method: as §1, §2
The next series has as its system MRSA (NCTC 12493). In kind it is cell-based. Here is the method: as §1, §2
Series [3] has as its system P. aeruginosa (ATCC 27853). The class given is cell-based. Here is the method: as §1, §2
Series [4] deals with S. aureus (ATCC CRM 6538). The class given is cell-based. Here is the method: as §1, §2
Series [5] deals with E. coli (ATCC 8739) biofilm. The class given is cell-based. Here is the method: (§3) The anti-biofilm activities were tested on S. aureus and E. coli, as indicated previously. For the positive and negative control, 20 mg/mL of vancomycin and 1% DMSO were applied, respectively, in both assays. In addition, 0.1% Crystal Violet was used as the biofilm colouring agent.
Series [6] has as its system S. aureus (ATCC CRM 6538) biofilm. The class given is cell-based. Here is the method: as §3
Series [7] deals with E. coli (ATCC 8739). As to the kind of experiment: Membrane permeability assay (SYTOX GREEN). In kind it is cell-based. The source says:
(§4) In order to test the permeability percentage of Temporin-1CEh and its analogues against S. aureus and E. coli, the SYTOX-GREEN nucleic acid stain was used in the assay indicated before. Tryptic soy broth (TSB) and Luria–Bertani (LB) broth were used as the media for S. aureus and E. coli, respectively.

In series [8] the test system is S. aureus (ATCC CRM 6538). The experiment in a line: Membrane permeability assay (SYTOX GREEN). The class given is cell-based.
Description: as §4

A further series deals with S. aureus. As to the kind of experiment: Galleria mellonella larvae infection model, S. aureus. In kind it is in vivo. Particulars: at a concentration of 20 mg/kg; G. mellonella larvae. Here is the method:
(§5) In this assay, the larvae of the wax moth (Galleria mellonella) were used as the infection model. The larvae (Livefood UK Ltd., Rooks Bridge, UK) were selected between 225 and 275 mg (9 larvae per group in a Petri dish). For the positive and negative controls, 50 mg/kg of vancomycin (25 mg/kg of ampicillin for E. coli) and PBS were employed. Final concentration of S. aureus and E. coli cells injected was 5 × 10^5 and 5 × 10^6 CFU/larva, respectively. The assay was performed as described before and the number of alive larvae was recorded every 12 h.

For another series, the system named is E. coli. As to the kind of experiment: Galleria mellonella larvae infection model, E. coli. Particulars: all tested concentrations; G. mellonella larvae, 5 × 10^6 CFU/larva. The class given is in vivo. Here is the method: as §5
The nature of series [9]: Aggregation at high concentration (observation). The class given is physicochemical. The settings on record: at a high concentration.
For series [10], the system named is erythrocytes from defibrinated horse blood. The experiment in a line: Haemolysis assay. Particulars: at 256 μM; horse erythrocytes.
Description: The erythrocytes from defibrinated horse blood (TCS Biosciences Ltd., Buckingham, UK) were used to perform the haemolysis assay, as described previously [27]. Equal volumes of PBS and 2% (v/v) of the non-ionic detergent, Triton X-100 (Sigma–Aldrich, St. Louis, MO, USA) in PBS solution, were used as negative and positive controls, respectively. HC50 was defined as the mean peptide concentration producing 50% haemolysis.
In series [11] the test system is E. coli (ATCC 8739). Particulars: MIC of Temporin-1CEa ref 29; cited from earlier work. An excerpt:
(§6) Table 2 The MICs and MBCs of Temporin-1CEh and its analogues as well as Temporin-1CEa against the S. aureus (ATCC CRM 6538), MRSA (NCTC 12493), E. faecalis (NCTC 12697), E. coli (ATCC 8739), P. aeruginosa (ATCC 27853) and K. pneumonia (ATCC 43816), as well as the MICs of Temporin-1CEa against S. aureus and E. coli. | column: MIC/MBC (μM) / Temporin-1CEa

The subject of series [12] is S. aureus (ATCC CRM 6538). The settings on record: MIC of Temporin-1CEa ref 29; cited from earlier work.
Description: as §6

In series [13] the test system is erythrocytes from defibrinated horse blood. The settings on record: cited from earlier work. Here is the method:
The calculated HC50 of Temporin-1CEh was 152.6 μM compared to that of Temporin-1CEa which was 160 μM [29]. Several modified strategies were used to optimise their antibacterial activity.

For `CC[C@H](C)[C@H](NC(=O)[C@H](CCCCNC(=O)[C@H](CCCCN)NC(=O)[C@H](Cc1c[nH]c2ccccc12)NC(=O)[C@@H]1CCCN1C(=O)[C@@H](NC(=O)[C@H](Cc1c[nH]c2ccccc12)NC(=O)[C@H](CCCCN)NC(=O)[C@@H](N)CCCCN)C(C)C)NC(=O)[C@H](CCCCN)NC(=O)[C@H](Cc1c[nH]c2ccccc12)NC(=O)[C@@H]1CCCN1C(=O)[C@@H](NC(=O)[C@H](Cc1c[nH]c2ccccc12)NC(=O)[C@H](CCCCN)NC(=O)[C@@H](N)CCCCN)C(C)C)C(=O)N[C@@H](C)C(=O)N[C@@H](CC(N)=O)C(=O)N[C@H](C(=O)N[C@@H](CC(C)C)C(N)=O)[C@@H](C)CC` [Peptide T1CEh-KKPWW2] (I: H-KKWVPWKKIANIL-NH2 / II: H-KKWVPWK; amide I:8-II:C; N-terminus assumed), the MBC came to 2 µM (≈ 5.15 µg/mL) in the series on E. coli (ATCC 8739) [1] (ATCC 8739); 64 µM (≈ 165 µg/mL) against E. faecalis (NCTC 12697) (NCTC 12697); 8 µM (≈ 20.6 µg/mL) in [2] (ATCC 43816); 16 µM (≈ 41.2 µg/mL) in the series with MRSA (NCTC 12493) (NCTC 12493); 16 µM (≈ 41.2 µg/mL) in series [3] (ATCC 27853); 8 µM (≈ 20.6 µg/mL) in series [4] (ATCC CRM 6538). Also, the minimum inhibitory concentration (MIC) was 2 µM (≈ 5.15 µg/mL) in the series with E. coli (ATCC 8739) [1] (ATCC 8739); 2 µM (≈ 5.15 µg/mL) in the series with E. coli (ATCC 8739) [1] (ATCC 8739, pH 6); 2 µM (≈ 5.15 µg/mL) in the series with E. coli (ATCC 8739) [1] (ATCC 8739, pH 7); 2 µM (≈ 5.15 µg/mL) in the series on E. coli (ATCC 8739) [1] (ATCC 8739, pH 8); 32 µM (≈ 82.4 µg/mL) in the series with E. faecalis (NCTC 12697) (NCTC 12697); 128 µM (≈ 330 µg/mL) against E. faecalis (NCTC 12697) (NCTC 12697, pH 6). Moreover, the MIC was found to be 32 µM (≈ 82.4 µg/mL) in the series on E. faecalis (NCTC 12697) (NCTC 12697, pH 7); 64 µM (≈ 165 µg/mL) against E. faecalis (NCTC 12697) (NCTC 12697, pH 8); 4 µM (≈ 10.3 µg/mL) in [2] (ATCC 43816); 8 µM (≈ 20.6 µg/mL) in series [2] (ATCC 43816, pH 6); 4 µM (≈ 10.3 µg/mL) in [2] (ATCC 43816, pH 7); 4 µM (≈ 10.3 µg/mL) in [2] (ATCC 43816, pH 8). Also, the minimum inhibitory concentration (MIC) was 8 µM (≈ 20.6 µg/mL) with MRSA (NCTC 12493) (NCTC 12493); 16 µM (≈ 41.2 µg/mL) against MRSA (NCTC 12493) (NCTC 12493, pH 6); 8 µM (≈ 20.6 µg/mL) in the series with MRSA (NCTC 12493) (NCTC 12493, pH 7); 2 µM (≈ 5.15 µg/mL) with MRSA (NCTC 12493) (NCTC 12493, pH 8); 8 µM (≈ 20.6 µg/mL) in series [3] (ATCC 27853); 32 µM (≈ 82.4 µg/mL) in series [3] (ATCC 27853, pH 6). In addition, the MIC in series [3] (ATCC 27853, pH 7) is 8 µM (≈ 20.6 µg/mL); in [3] (ATCC 27853, pH 8), 8 µM (≈ 20.6 µg/mL); in series [4] (ATCC CRM 6538), 4 µM (≈ 10.3 µg/mL); in [4] (ATCC CRM 6538, pH 6), 8 µM (≈ 20.6 µg/mL); in series [4] (ATCC CRM 6538, pH 7) it was 4 µM (≈ 10.3 µg/mL); in [4] (ATCC CRM 6538, pH 8), 2 µM (≈ 5.15 µg/mL). For the same compound, the “decrease of MIC comparing with that of T1CEh-KKPWW” value in the series with E. coli (ATCC 8739) [1] (E. coli) is “twofold”; with E. faecalis (NCTC 12697) (E. faecalis), “four-fold”; with MRSA (NCTC 12493) (MRSA), “four-fold”; in series [3] (P. aeruginosa), “twofold”. Besides, the MBEC in [5] and in series [6] was greater than 256 µM in each case. Moreover, the MBIC in series [5] amounted to 8 µM; in [6], 32 µM. In addition, the “permeability rates compared with that of Temporin-1CEh” value (with E. coli (ATCC 8739) [7]; in series [8]) was “higher permeability rates” each time. The “mortality of S. aureus infected larvae” value with S. aureus is given as “significantly reduced the mortality”. In the series on E. coli, the “mortality of E. coli infected larvae” value is “reduced the mortality”. The aggregation entry in [9] is given as “aggregation can be found in T1CEh-KKPWW2 at a high concentration, achieving hydrogel”. The compound also yielded a haemolysis rate in series [10] of 63%.

FVDLKKIANIINSIF-NH2 [Temporin-1CEa]: the MIC is greater than 100 µM in the series with E. coli (ATCC 8739) [11] and 13.1 µM in series [12]. Further, the HC50 in series [13] is 160 µM.

As usually defined, the MBC is the lowest tested concentration that kills the bacteria rather than only halting them. What is called MIC is the least concentration at which growth counts as inhibited. One may read the HC50 as the concentration that lyses half of the red blood cells.
